The numbers were not newly measured in patent publication US20090312439A1, “USE OF ROLL COMPACTED PYROGENICALLY PRODUCED SILICON DIOXIDE IN PHARMACEUTICAL COMPOSITIONS” (priority 2006, published 2009), which cites them from elsewhere.

Turning to `C#C[C@]1(O)CC[C@H]2[C@@H]3CCc4cc(O)ccc4[C@H]3CC[C@@]21C` [ethinyl oestradiol], for the setting “pure active constituent in water, reached only after shaking over several days”, the saturation equilibrium value is given as 1.1 mg/100 ml. Moreover, the “release of active constituent on contact with water” value (sorbate of 5.2 mg on 100 mg pyrogenic silicic acid (AEROSIL 200)) is reported as “supersaturated solution is formed”.
